Data taken from PubChem BioAssay AID248 (DTP/NCI, 2004).
“And” between values parts separate entries of the source, which are not always exact repeats. Equal entries are not always repeated. Toxic doses and inconclusive results are not listed. Cut-off read from the data, not from the text of the source: active = T/C of 150% or more; inactive = T/C below 125%.

Tested on: L1210 leukemia ip in BDF1 mice, survival T/C
Test: NCI In Vivo Anticancer Drug Screen. Data for tumor model L1210 Leukemia (intraperitoneal) in B6D2F1 (BDF1) mice
Settings: endpoint: mean survival time, higher = longer survival
How it was run: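 In this screen, tumor-bearing mice given compound are compared to those given vehicle, and their survival values are reported as a treated-to-control quotient.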

[1] = dose: 100.0 mg/kg/injection, schedule: Q01DX009 (ip), vehicle: Klucel (hydroxypropylcellulose) (HPC)
[2] = dose: 100.0 mg/kg/injection, schedule: Q04DX003 (ip), vehicle: saline with Tween-80
[3] = dose: 200.0 mg/kg/injection, schedule: Q01DX009 (ip), vehicle: Klucel (hydroxypropylcellulose) (HPC)
[4] = dose: 400.0 mg/kg/injection, schedule: Q01DX009 (ip), vehicle: Klucel (hydroxypropylcellulose) (HPC)
[5] = dose: 400.0 mg/kg/injection, schedule: Q04DX003 (ip), vehicle: saline
[6] = dose: 100.0 mg/kg/injection, schedule: Q04DX003 (ip), vehicle: Klucel (hydroxypropylcellulose) (HPC)
[7] = dose: 200.0 mg/kg/injection, schedule: Q04DX003 (ip), vehicle: Klucel (hydroxypropylcellulose) (HPC)
[8] = dose: 400.0 mg/kg/injection, schedule: Q04DX003 (ip), vehicle: Klucel (hydroxypropylcellulose) (HPC)
[9] = dose: 100.0 mg/kg/injection, schedule: Q01DX009 (ip), vehicle: saline
[10] = dose: 100.0 mg/kg/injection, schedule: Q04DX003 (ip), vehicle: saline
[11] = dose: 200.0 mg/kg/injection, schedule: Q01DX009 (ip), vehicle: saline
[12] = dose: 200.0 mg/kg/injection, schedule: Q04DX003 (ip), vehicle: saline
[13] = dose: 400.0 mg/kg/injection, schedule: Q01DX009 (ip), vehicle: saline

Measured: T/C

CCN(CC)c1ccc(N=Nc2c(C)nc(N)nc2-c2ccccc2)cc1
inactive: dose: 5.0 mg/kg/injection, schedule: Q01DX001 (ip), vehicle: saline 103 % of control | dose: 10.0 mg/kg/injection, schedule: Q01DX001 (ip), vehicle: saline 96 % of control | dose: 20.0 mg/kg/injection, schedule: Q01DX001 (ip), vehicle: saline 91 % of control | dose: 40.0 mg/kg/injection, schedule: Q01DX001 (ip), vehicle: saline 92 % of control | dose: 80.0 mg/kg/injection, schedule: Q01DX001 (ip), vehicle: saline 87 % of control

c1ccc2c(N=NSc3ncnc4nc[nH]c34)c3ccccc3nc2c1
inactive: dose: 5.0 mg/kg/injection, schedule: Q01DX001 (ip), vehicle: carboxymethylcellulose (CMC) 105 % of control | dose: 10.0 mg/kg/injection, schedule: Q01DX001 (ip), vehicle: carboxymethylcellulose (CMC) 115 % of control | dose: 20.0 mg/kg/injection, schedule: Q01DX001 (ip), vehicle: carboxymethylcellulose (CMC) 98 % of control | dose: 40.0 mg/kg/injection, schedule: Q01DX001 (ip), vehicle: carboxymethylcellulose (CMC) 107 % of control

CCCCCCCCCCCC1=NCCN1
inactive: dose: 6.25 mg/kg/injection, schedule: Q01DX009 (ip), vehicle: saline 91 % of control | dose: 12.5 mg/kg/injection, schedule: Q01DX009 (ip), vehicle: saline 91 % of control | dose: 12.5 mg/kg/injection, schedule: Q04DX003 (ip), vehicle: saline 89 % of control | dose: 25.0 mg/kg/injection, schedule: Q01DX009 (ip), vehicle: saline with Tween-80 93 % of control | dose: 25.0 mg/kg/injection, schedule: Q01DX009 (ip), vehicle: saline 93 % of control | dose: 25.0 mg/kg/injection, schedule: Q04DX003 (ip), vehicle: saline with Tween-80 97 % of control | dose: 25.0 mg/kg/injection, schedule: Q04DX003 (ip), vehicle: saline 94 % of control | dose: 50.0 mg/kg/injection, schedule: Q01DX009 (ip), vehicle: saline 91 % of control | dose: 50.0 mg/kg/injection, schedule: Q04DX003 (ip), vehicle: saline with Tween-80 97 % of control | dose: 50.0 mg/kg/injection, schedule: Q04DX003 (ip), vehicle: saline 94 % of control | [1] 100 % of control | [2] 100 % of control | [3] 96 % of control | [4] 88 % of control

NC(N)=NO
inactive: dose: 9.37 mg/kg/injection, schedule: Q01DX009 (ip), vehicle: saline 107 % of control | dose: 18.75 mg/kg/injection, schedule: Q01DX009 (ip), vehicle: saline 107 % of control | dose: 37.5 mg/kg/injection, schedule: Q01DX009 (ip), vehicle: saline 109 % of control | dose: 75.0 mg/kg/injection, schedule: Q01DX009 (ip), vehicle: saline 111 % of control | dose: 100.0 mg/kg/injection, schedule: Q01DX Z (ip), vehicle: saline 115 % of control | dose: 144.0 mg/kg/injection, schedule: Q03HX024 (ip), vehicle: saline 123 % of control | dose: 150.0 mg/kg/injection, schedule: Q01DX Z (ip), vehicle: other 112 % of control | dose: 217.0 mg/kg/injection, schedule: Q03HX024 (ip), vehicle: saline 117 % of control | dose: 300.0 mg/kg/injection, schedule: Q01DX Z (ip), vehicle: other 121 % of control | dose: 300.0 mg/kg/injection, schedule: Q01DX Z (ip), vehicle: saline 122 % of control | dose: 325.0 mg/kg/injection, schedule: Q03HX024 (ip), vehicle: saline 122 % of control | [5] 104 % of control | dose: 487.0 mg/kg/injection, schedule: Q03HX024 (ip), vehicle: saline 113 % of control | dose: 600.0 mg/kg/injection, schedule: Q04DX003 (ip), vehicle: saline 91 % of control

O=C(Nc1cccc(C2=NCCN2)c1)Nc1cccc(C2=NCCN2)c1
inactive: dose: 6.0 mg/kg/injection, schedule: Q01DX Z (ip), vehicle: water 104 % of control | dose: 12.0 mg/kg/injection, schedule: Q01DX Z (ip), vehicle: water 101 % of control | dose: 25.0 mg/kg/injection, schedule: Q01DX Z (ip), vehicle: water 97 % of control

CC1CCc2cc3c(cc2C1)S(=O)(=O)c1ccccc1-3 (stereo not drawn)
inactive: dose: 100.0 mg/kg/injection, schedule: Q01DX001 (ip), vehicle: saline 96 % of control | dose: 200.0 mg/kg/injection, schedule: Q01DX001 (ip), vehicle: saline 86 % of control | dose: 400.0 mg/kg/injection, schedule: Q01DX001 (ip), vehicle: saline 86 % of control

N#CC(C#N)N=O (tested in a mixture with another compound)
inactive: dose: 25.0 mg/kg/injection, schedule: Q04DX002 (ip), vehicle: saline 89 % of control | dose: 50.0 mg/kg/injection, schedule: Q04DX002 (ip), vehicle: saline 101 % of control | dose: 100.0 mg/kg/injection, schedule: Q04DX002 (ip), vehicle: saline 95 % of control and 97 % of control | dose: 200.0 mg/kg/injection, schedule: Q04DX002 (ip), vehicle: saline 105 % of control

CC(=O)Nc1ccc(OC(=O)Nc2ccccc2Cl)cc1
inactive: [1] 101 % of control | [6] 96 % of control | [7] 95 % of control | [4] 101 % of control | [8] 95 % of control

O=C1OC(c2ccc([N+](=O)[O-])cc2)Sc2ccccc21 (stereo not drawn)
inactive: [9] 98 % of control | [10] 106 % of control | [11] 94 % of control | [12] 108 % of control | [13] 91 % of control | [5] 97 % of control

O=C(O)/C=C/c1ccccc1Cl
inactive: dose: 25.0 mg/kg/injection, schedule: Q04DX003 (ip), vehicle: Klucel (hydroxypropylcellulose) (HPC) 94 % of control | dose: 50.0 mg/kg/injection, schedule: Q04DX003 (ip), vehicle: Klucel (hydroxypropylcellulose) (HPC) 103 % of control | [6] 96 % of control

Cc1cc(=O)[nH]c(N/N=C/c2cc(Cl)ccc2O)n1
inactive: dose: 50.0 mg/kg/injection, schedule: Q01DX009 (ip), vehicle: saline with Tween-80 87 % of control

O=C(O)[C@H]1CC2CCC1C2 (stereo partly drawn)
inactive: [2] 98 % of control | dose: 200.0 mg/kg/injection, schedule: Q04DX003 (ip), vehicle: saline with Tween-80 102 % of control | dose: 400.0 mg/kg/injection, schedule: Q04DX003 (ip), vehicle: saline with Tween-80 93 % of control

O=S1(=O)CC(N2CCCCC2)C12CC1c3ccccc3C2c2ccccc21 (stereo not drawn)
inactive: dose: 100.0 mg/kg/injection, schedule: Q04DX002 (ip), vehicle: Klucel (hydroxypropylcellulose) (HPC) 104 % of control | dose: 200.0 mg/kg/injection, schedule: Q04DX002 (ip), vehicle: Klucel (hydroxypropylcellulose) (HPC) 101 % of control | dose: 400.0 mg/kg/injection, schedule: Q04DX002 (ip), vehicle: Klucel (hydroxypropylcellulose) (HPC) 101 % of control

Nc1ccc(S(=O)(=O)c2ccc(N)cc2)cc1
inactive: dose: 100.0 mg/kg/injection, schedule: Q01DX001 (ip), vehicle: other 100 % of control | [6] 96 % of control | dose: 200.0 mg/kg/injection, schedule: Q01DX001 (ip), vehicle: other 97 % of control | [7] 101 % of control | dose: 400.0 mg/kg/injection, schedule: Q01DX001 (ip), vehicle: other 107 % of control | [8] 101 % of control

COc1cc2c(cc1O)C(=O)CCC=C2
inactive: dose: 50.0 mg/kg/injection, schedule: Q01DX009 (ip), vehicle: other 102 % of control | dose: 100.0 mg/kg/injection, schedule: Q01DX009 (ip), vehicle: other 98 % of control | dose: 200.0 mg/kg/injection, schedule: Q01DX009 (ip), vehicle: other 94 % of control

CC1(C)C(C)(C)C1(Cl)Cl
inactive: [9] 100 % of control | dose: 100.0 mg/kg/injection, schedule: Q04DX003 (sc), vehicle: olive oil, sesame oil, peanut oil 112 % of control | [11] 100 % of control | dose: 200.0 mg/kg/injection, schedule: Q04DX003 (sc), vehicle: olive oil, sesame oil, peanut oil 96 % of control | [13] 100 % of control | dose: 400.0 mg/kg/injection, schedule: Q04DX003 (sc), vehicle: olive oil, sesame oil, peanut oil 107 % of control

CCN(CC)C(=O)C1C2CCC(C2)C1C(=O)N(CC)CC (stereo not drawn)
inactive: [10] 100 % of control | [12] 100 % of control | [5] 100 % of control

O=C(Nc1cccc(C(F)(F)F)c1)Oc1ccccc1F
inactive: [1] 91 % of control | [3] 92 % of control
